The text below walks through data of patent US7071297B2, “Tolerogenic peptides from myelin basic protein” (Apitope Technology (Bristol) Limited, priority 2002, dated 2006).

One experiment concerns the target T1, I-A^S (Mus musculus, UniProt P06345+P14437).
T1 sequence (P14437 1-233): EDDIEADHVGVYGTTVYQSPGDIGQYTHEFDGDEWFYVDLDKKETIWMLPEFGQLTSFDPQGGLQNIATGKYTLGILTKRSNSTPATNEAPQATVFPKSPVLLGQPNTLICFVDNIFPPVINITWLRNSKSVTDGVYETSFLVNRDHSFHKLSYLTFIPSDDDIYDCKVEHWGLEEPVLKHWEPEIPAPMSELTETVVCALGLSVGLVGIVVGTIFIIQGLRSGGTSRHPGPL
T1 sequence (P06345 28-263): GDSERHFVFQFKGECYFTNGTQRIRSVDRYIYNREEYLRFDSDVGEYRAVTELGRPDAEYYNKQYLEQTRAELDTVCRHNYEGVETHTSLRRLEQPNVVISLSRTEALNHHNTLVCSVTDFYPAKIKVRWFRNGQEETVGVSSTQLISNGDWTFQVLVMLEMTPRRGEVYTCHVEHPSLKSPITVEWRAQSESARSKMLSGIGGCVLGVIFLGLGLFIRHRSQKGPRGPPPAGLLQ
The conditions noted are these: cited from earlier work.

For experiment [1] the following is noted: cited from earlier work; for induction of tolerance: administered in solution.
The next experiment deals with T cell clone MS60:D2. Kind of experiment: Presentation of nested MBP peptides by fixed APC (Mgar cells) to T cell clone MS60:D2, proliferation assay. In kind it is cell-based, human. The conditions noted are these: p-formaldehyde fixed Mgar (HLA-DR2+ve) cells, T cell clone MS60:D2, 3H-thymidine uptake, FIG. 1.
Another experiment deals with T cell clone N5. The experiment is described as follows: Presentation of MBP peptide 140-154 by fixed APC to T cell clone N5, proliferation assay. In kind it is cell-based, human. The conditions noted are these: T cell clone N5, FIG. 2. The method, then:
MBP-specific T cell lines (TCL) are generated from 8 MS patients and 2 healthy control donors. PBMC from each subject are separated as described above and plated out at 1×10^6 cells/ml in 6-well plates in the presence of MBP (50 μg/ml); a portion of PBMC from each subject is regularly frozen and stored for subsequent restimulations. Seven days later the cells are fed with fresh medium containing 2% IL-2 (Lymphocult-HT; Biotest LTD., Birmingham, UK), and on day 12 of culture all cells are restimulated with antigen, IL-2 and irradiated (2500 Rad) autologous PBMC as a source of antigen presenting cells (APC), at a cell ratio of 1T cell:5 APC. Cells are expanded in IL-2 every 3-4 days, and on day 14 are restimulated with antigen, IL-2 and PBMC, as described above. On the day of the first restimulation cells are examined for specific proliferation to MBP. Briefly, 2×10^4 T cells and 1×10^5 irradiated autologous PBMC are cultured in triplicate, in 96-well round-bottom plates, in the presence of MBP. […]
Live or p-formaldehyde fixed Mgar (HLA-DR2+ve) cells were incubated with peptides in serum or in serum alone, together with T cells. The T cell proliferative response was measured by ^3H-thymidine uptake as follows. […] [^3H]-Thymidine incorporation is determined using a Microbeta liquid scintillation counter (LKB-Wallac). […]

Experiment [2] deals with lymph node cells of HLA:DR2 transgenic mice. Kind of experiment: Induction of tolerance in HLA:DR2 transgenic mouse, lymph node proliferation assay. In kind it is in vivo.

Where two headings read alike, the source gives them in different places.

For the substance “MBP[89-101]: myelin basic protein (MBP) peptide 89-101, an immunodominant antigen after immunisation (PHLIRLFSRDAPG; UniProt P04370 89-101, looked up, fragment)”, the “affinity of binding to I-A^S” value with I-A^S is given as “relatively high affinity”. Besides, the induction of tolerance result in experiment [1] is recorded as “not tolerogenic”; in experiment [1] (listed as 89-101) it was “ineffective at inducing tolerance”. The “immunogenicity (priming for T cell reactivity and induction of EAE)” value in experiment [1] (after immunisation) is recorded as “very effective immunogen”.
Consider “KGFKGVDAQGTLSKI (listed as Homo sapiens) [MBP 139-153, myelin basic protein peptide 139-153]”, for which the “presentation by fixed APC to T cells without further processing (apitope)” value with T cell clone MS60:D2 was “apitopes”.
“GFKGVDAQGTLSKIF (listed as Homo sapiens) [MBP 140-154, myelin basic protein peptide 140-154]”: the “presentation by fixed APC without further processing” value with T cell clone N5 is reported as “can be presented by fixed APC without further processing”. Further, the “presentation by fixed APC to T cells without further processing (apitope)” value in the experiment with T cell clone MS60:D2 is given as “apitopes”. For the same substance, the “SI values of the one pre-treated mouse that failed to show induction of tolerance” value in experiment [2] (Group B, over peptide concentration range 1-150 ugml^-1) is recorded as 12-15. The “Stimulation Index (SI) median of lymphocyte proliferation” value in experiment [2] (Group B: 100 ug peptide i.n. days -8, -6, -4, immunised with same peptide in CFA, restimulated with 150 ugml^-1 peptide) is 3. For the same substance, in experiment [2] (intranasal pre-treatment, lymphocytes from HLA-DR2 mice), the induction of tolerance result is reported as “induced tolerance”.
Take “KSAHKGFKGVDAQGT (listed as Homo sapiens) [MBP 135-149, myelin basic protein peptide 135-149]”: the “presentation by fixed APC to T cells without further processing (apitope)” value in the experiment on T cell clone MS60:D2 is “apitopes”.
On the same count and under the same terms, as for “HKGFKGVDAQGTLSK (listed as Homo sapiens) [MBP 138-152, myelin basic protein peptide 138-152]”, the entry is “apitopes”; as for “YKSAHKGFKGVDAQG (listed as Homo sapiens) [MBP 134-148, myelin basic protein peptide 134-148]”, “apitopes”.
On the same count and under the same terms, as for “SAHKGFKGVDAQGTL (listed as Homo sapiens) [MBP 136-150, myelin basic protein peptide 136-150]”, the entry is “apitopes”; as for “AHKGFKGVDAQGTLS (listed as Homo sapiens) [MBP 137-151, myelin basic protein peptide 137-151]”, “apitopes”.
